The text below walks through data of patent US8871788B2, “Substituted N-alkyl and N-acyl tetrahydro-isoquinoline derivatives, preparation and therapeutic use thereof” (Sanofi, priority 2010, dated 2014).

By Ki is commonly meant the equilibrium dissociation constant of an inhibitor or competing ligand from its target.

One experiment deals with Rat H3 (Rattus norvegicus, UniProt Q9QYN8). The experiment is described as follows: Rat H3 radioligand binding (similar procedure). Particulars: rat H3, similar procedure to rhesus binding. The protocol:
(§1) Rhesus H3 radioligand binding assay was performed using rhesus H3 receptor membranes (prepared as described above), [3H]-Methylhistamine (Perkin Elmer) and WGA SPA beads (wheat germ agglutinin scintillation proximity assay) beads (Amersham). The assay was performed in 96-well Opti-Plates (Packard). Each reaction contained 50 μl rhesus H3 membranes (20-30 μg total protein), 50 μl WGA SPA beads (0.1 μg) and 50 μl of 83Ci/mmol [^3H]-Methylhistamine (final concentration 2 nM) and 50 μl of tested compound. The compounds of this invention and/or vehicle were diluted with binding buffer from 10 mM DMSO stocks. Assay plates were sealed with TopSeal (Perkin Elmer) and mixed on shaker (25° C., 1 hour). Assay plates were read on TopCount scintillation counter (Packard). Results were analyzed by Hill transformation and Ki values were determined by Cheng-Prusoff equation. Similar procedure was employed to determine the binding data for rat.

The target in a further experiment is T1, rhesus H3 (Macaca mulatta, UniProt Q865E1).
T1 construct: 445 amino acid H3 receptor; expressed in transfected cells; host or cells: Flp-In T-REx 293 Cell Line (Invitrogen), pcDNA5/FRT/TO, induced with tetracycline
The experiment is described as follows: GTPγS radioligand binding assay, rhesus H3 constitutive functional activity in cell membranes. It is filed as biochemical, rhesus monkey (Macacca Mulatta). To be noted: relative to basal levels. As to the method:
(§2) Rhesus H3 membranes were prepared from the Flp-In T-REx 293 Cell Line (Invitrogen) stably transfected with pcDNA5/FRT/TO (Invitrogen) containing the rhesus monkey (Macacca Mulatta) 445 amino acid H3 receptor. (Genbank #AY231164). Stably transfected cultures were amplified in tissue culture flasks by standard tissue culture methods and induced to express rhesus H3 by exposure to 500 ng/ml tetracycline (Cellgro) for 24 hours. After induction, cells were dissociated from flasks utilizing Cell Stripper (Cellgro). Cells were centrifuged (1K×g, 5 min) and pellet frozen in an ethanol-dry ice bath to disrupt cell membranes. Frozen cell pellet was re-suspended in 5 mM HEPES (pH 7.4, Invitrogen) at 10 ml/1000 cm2 of harvested cells. The cell suspension was drawn through an 18 gauge needle (2-3×) followed by a 23 gauge needle (2-3×) to further disrupt cell membranes. The cell suspension was centrifuged (40K×g, 30 min). Cell membrane pellet was re-suspended in 5 mM HEPES (pH 7.4, Invitrogen) at a final protein concentration of 10 mg/ml. Rhesus H3 membranes were stored under liquid nitrogen prior to use in [3H]-Methylhistamine and GTPγS radioligand binding assays.

The target of experiment [1] is T2, rhesus (Macacca Mulatta) H3 receptor (Macaca mulatta, UniProt Q865E1).
T2 construct: 445 amino acid H3 receptor; expressed in transfected cells; host or cells: Flp-In T-REx 293 Cell Line (Invitrogen), pcDNA5/FRT/TO, induced with tetracycline
The experiment is described as follows: Rhesus H3 [3H]-Methylhistamine radioligand binding assay (SPA). Set-up: species or system rhesus monkey (Macacca Mulatta). Particulars: [3H]-Methylhistamine 2 nM, rhesus H3 membranes, Cheng-Prusoff. The protocol:
as §2, §1

Sequence of Rat H3 (Q9QYN8 whole entry): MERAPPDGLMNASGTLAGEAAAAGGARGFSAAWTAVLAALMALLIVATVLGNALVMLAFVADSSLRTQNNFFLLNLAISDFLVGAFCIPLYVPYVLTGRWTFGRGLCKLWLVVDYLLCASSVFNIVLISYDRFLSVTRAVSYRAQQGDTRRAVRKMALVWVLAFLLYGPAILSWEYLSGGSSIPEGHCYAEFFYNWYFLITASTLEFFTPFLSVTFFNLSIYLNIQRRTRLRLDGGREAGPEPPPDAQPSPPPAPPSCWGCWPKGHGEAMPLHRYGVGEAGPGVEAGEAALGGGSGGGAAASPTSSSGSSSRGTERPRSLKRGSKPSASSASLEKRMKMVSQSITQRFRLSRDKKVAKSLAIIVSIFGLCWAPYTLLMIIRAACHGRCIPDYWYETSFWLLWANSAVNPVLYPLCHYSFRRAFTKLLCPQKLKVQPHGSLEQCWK
T2 sequence (Q865E1 1-445): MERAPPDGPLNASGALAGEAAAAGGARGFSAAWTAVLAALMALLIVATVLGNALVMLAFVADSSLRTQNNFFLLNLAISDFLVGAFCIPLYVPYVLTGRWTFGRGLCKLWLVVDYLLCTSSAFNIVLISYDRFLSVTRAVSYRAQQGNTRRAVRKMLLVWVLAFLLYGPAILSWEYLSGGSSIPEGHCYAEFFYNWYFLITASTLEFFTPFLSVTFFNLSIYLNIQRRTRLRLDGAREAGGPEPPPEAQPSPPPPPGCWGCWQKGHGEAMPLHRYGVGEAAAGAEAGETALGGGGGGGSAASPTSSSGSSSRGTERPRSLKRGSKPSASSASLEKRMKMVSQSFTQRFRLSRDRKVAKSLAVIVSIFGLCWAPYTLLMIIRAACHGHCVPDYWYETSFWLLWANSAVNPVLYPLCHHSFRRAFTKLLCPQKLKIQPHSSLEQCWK
T1 sequence (Q865E1 1-445): as above

With `C[C@H]1CCCN1[C@H]1CCN(c2ccc3c(c2)CCN(C(=O)c2cccnc2)C3)C1` [Example 14, [6-((2S,3′S)-2-Methyl-[1,3′]bipyrrolidinyl-1′-yl)-3,4-dihydro-1H-isoquinolin-2-yl]-pyridin-3-yl-methanone], the Ki at Rat H3 worked out at 2.6 nM; in experiment [1], 0.28 nM. In addition, the “GTPγS-35 ASSAY % Inverse Agonism” value at rhesus H3 is −17.2%.
The matching figures for `CCOC(=O)C1CCC(N2CCc3cc(N4CC[C@H](N5CCC[C@@H]5C)C4)ccc3C2)CC1` (stereo partly drawn) [Example 5, 4-[6-((2S,3′S)-2-Methyl-[1,3′]bipyrrolidinyl-1′-yl)-3,4-dihydro-1H-isoquinolin-2-yl]-cyclohexanecarboxylic acid ethyl ester]: 0.59 nM, 0.57 nM and −40.0%.
On to `C[C@H]1CCCN1[C@H]1CCN(c2ccc3c(c2)CCN(C(=O)C2CCCC2)C3)C1` [Example 21, Cyclopentyl-[6-((2S,3′S)-2-methyl-[1,3′]bipyrrolidinyl-1′-yl)-3,4-dihydro-1H-isoquinolin-2-yl]-methanone], for which the Ki at Rat H3 came to 0.51 nM; in experiment [1], 0.15 nM. The “GTPγS-35 ASSAY % Inverse Agonism” value at rhesus H3 is on record as −12.2%.
Regarding `COc1cccc(S(=O)(=O)N2CCc3cc(N4CC[C@H](N5CCC[C@@H]5C)C4)ccc3C2)c1.O=C(O)C(F)(F)F` [Example 22, 2-(3-Methoxy-benzenesulfonyl)-6-((2S,3′S)-2-methyl-[1,3′]bipyrrolidinyl-1′-yl)-1,2,3,4-tetrahydro-isoquinoline; compound with trifluoro-acetic acid], the Ki at Rat H3 turned out to be 15 nM; in experiment [1], 25 nM. For the same compound, the “GTPγS-35 ASSAY % Inverse Agonism” value on rhesus H3 is listed as −27.7%.
With `COc1cccc(NC(=O)N2CCc3cc(N4CC[C@H](N5CCC[C@@H]5C)C4)ccc3C2)c1` [Example 23, 6-((2S,3′S)-2-Methyl-[1,3′]bipyrrolidinyl-1′-yl)-3,4-dihydro-1H-isoquinoline-2-carboxylic acid (3-methoxy-phenyl)-amide], the inhibition constant (Ki) on Rat H3 turned out to be 280 nM; in experiment [1] it was 11 nM. Also, the “GTPγS-35 ASSAY % Inverse Agonism” value at rhesus H3 is −22.5%.
On to `C[C@H]1CCCN1[C@H]1CCN(c2ccc3c(c2)CCN(Cc2ccc4c(c2)OCCO4)C3)C1` [Example 8, 2-(2,3-Dihydro-benzo[1,4]dioxin-6-ylmethyl)-6-((2S,3′S)-2-methyl-[1,3′]bipyrrolidinyl-1′-yl)-1,2,3,4-tetrahydro-isoquinoline], for which the Ki was 6.9 nM on Rat H3 and 0.46 nM in experiment [1]. Also, on rhesus H3, the “GTPγS-35 ASSAY % Inverse Agonism” value is listed as −9.1%.
The matching figures for `C[C@H]1CCCN1[C@H]1CCN(c2ccc3c(c2)CCN(CC2CCCC2)C3)C1` [Example 7, 2-Cyclopentylmethyl-6-((2S,3′S)-2-methyl-[1,3′]bipyrrolidinyl-1′-yl)-1,2,3,4-tetrahydro-isoquinoline]: 0.19 nM, 1.2 nM and −6.9%.
Turning to `CCOC(=O)N1CCC(N2CCc3cc(N4CC[C@H](N5CCC[C@@H]5C)C4)ccc3C2)CC1` [Example 3, 4-[6-((2S,3′S)-2-Methyl-[1,3′]bipyrrolidinyl-1′-yl)-3,4-dihydro-1H-isoquinolin-2-yl]-piperidine-1-carboxylic acid ethyl ester], the inhibitory constant (Ki) on Rat H3 was 0.97 nM; in experiment [1] it was 0.38 nM.
For the compound `C[C@H]1CCCN1[C@H]1CCN(c2ccc3c(c2)CCN(C(=O)C(c2ccccc2)c2ccccc2)C3)C1` [Example 13, 1-[6-((2S,3′S)-2-Methyl-[1,3′]bipyrrolidinyl-1′-yl)-3,4-dihydro-1H-isoquinolin-2-yl]-2,2-diphenyl-ethanone], the values for the Ki (at Rat H3; in experiment [1]) were 7.7 nM and 3.7 nM, respectively. In addition, the “GTPγS-35 ASSAY % Inverse Agonism” value at rhesus H3 is −16.1%.
Take `C[C@H]1CCCN1[C@H]1CCN(c2ccc3c(c2)CCN(C(=O)c2ccoc2)C3)C1` [Example 15, Furan-3-yl-[6-((2S,3′S)-2-methyl-[1,3′]bipyrrolidinyl-1′-yl)-3,4-dihydro-1H-isoquinolin-2-yl]-methanone]: the inhibition constant Ki at Rat H3 was found to be 2.7 nM; in experiment [1], 0.22 nM. The “GTPγS-35 ASSAY % Inverse Agonism” value at rhesus H3 was −16.8%.
As to `C[C@H]1CCCN1[C@H]1CCN(c2ccc3c(c2)CCN(C(=O)C2CCOCC2)C3)C1` [Example 19, [6-((2S,3′S)-2-Methyl-[1,3′]bipyrrolidinyl-1′-yl)-3,4-dihydro-1H-isoquinolin-2-yl]-(tetrahydro-pyran-4-yl)-methanone], the Ki at Rat H3 came to 0.22 nM; in experiment [1], 0.12 nM. The “GTPγS-35 ASSAY % Inverse Agonism” value at rhesus H3 was −17.4%.
For the compound `C[C@H]1CCCN1[C@H]1CCN(c2ccc3c(c2)CCN(C(=O)c2cc4c(ccn4CCOC[Si](C)(C)C)s2)C3)C1` [Example 20, [6-((2S,3′S)-2-Methyl-[1,3′]bipyrrolidinyl-1′-yl)-3,4-dihydro-1H-isoquinolin-2-yl]-[4-(2-trimethylsilanylmethoxy-ethyl)-4H-thieno[3,2-b]pyrrol-2-yl]-methanone], the Ki on Rat H3 amounted to 140 nM; in experiment [1], 22 nM. Moreover, at rhesus H3, the “GTPγS-35 ASSAY % Inverse Agonism” value is reported as −23.0%.
Take `Cc1ccc(S(=O)(=O)N2CCc3cc(N4CC[C@H](N5CCC[C@@H]5C)C4)ccc3C2)cc1` [Example 24, 6-((2S,3′S)-2-Methyl-[1,3′]bipyrrolidinyl-1′-yl)-2-(toluene-4-sulfonyl)-1,2,3,4-tetrahydro-isoquinoline]: the values for the Ki (at Rat H3; in experiment [1]) were 110 nM and 88 nM, respectively. For the same compound, the “GTPγS-35 ASSAY % Inverse Agonism” value at rhesus H3 is listed as −33.2%.
In the case of `C[C@H]1CCCN1[C@H]1CCN(c2ccc3c(c2)CCN(C2CCC(NC(=O)OC(C)(C)C)CC2)C3)C1` (stereo partly drawn) [Example 11, {4-[6-((2S,3′S)-2-Methyl-[1,3′]bipyrrolidinyl-1′-yl)-3,4-dihydro-1H-isoquinolin-2-yl]-cyclohexyl}-carbamic acid tert-butyl ester], the results for the Ki (at Rat H3; in experiment [1]) were 0.31 nM and 0.35 nM, respectively. The “GTPγS-35 ASSAY % Inverse Agonism” value on rhesus H3 is reported as −7.9%.
On to `C[C@H]1CCCN1[C@H]1CCN(c2ccc3c(c2)CCN(C2CCN(C(=O)OC(C)(C)C)C2)C3)C1` (stereo partly drawn) [Example 6, 3-[6-((2S,3′S)-2-Methyl-[1,3′]bipyrrolidinyl-1′-yl)-3,4-dihydro-1H-isoquinolin-2-yl]-pyrrolidine-1-carboxylic acid tert-butyl ester], for which the inhibitory constant (Ki) on Rat H3 stood at 0.74 nM; in experiment [1] it was 0.9 nM. Moreover, the “GTPγS-35 ASSAY % Inverse Agonism” value at rhesus H3 is given as −24.9%.
In the case of `C[C@H]1CCCN1[C@H]1CCN(c2ccc3c(c2)CN(C(=O)C2CCOCC2)CC3)C1` [Example 2, [7-((2S,3′S)-2-Methyl-[1,3′]bipyrrolidinyl-1′-yl)-3,4-dihydro-1H-isoquinolin-2-yl]-(tetrahydro-pyran-4-yl)-methanone], the Ki at Rat H3 is 0.91 nM; in experiment [1], 0.66 nM. In addition, the “GTPγS-35 ASSAY % Inverse Agonism” value on rhesus H3 is on record as −25.5%.
As for `CC(C)N1CCc2cc(N3CC[C@H](N4CCC[C@@H]4C)C3)ccc2C1` [Example 10, 2-Isopropyl-6-((2S,3′S)-2-methyl-[1,3′]bipyrrolidinyl-1′-yl)-1,2,3,4-tetrahydro-isoquinoline], the Ki at Rat H3 was 0.91 nM; in experiment [1], 0.75 nM. Further, the “GTPγS-35 ASSAY % Inverse Agonism” value at rhesus H3 is listed as −9.3%.
